Measured values as given in paper PMC5050145 (European journal of nuclear medicine and molecular imaging, 2016).
Several values for one entry are separate records, joined by “and”; a condition that tells them apart may be missing. Equal entries are not always repeated.

How the values were obtained:
[1] = Dosimetry: mouse microPET biodistribution extrapolated to humans; assay type: in vivo, C57BL6 mice; details: for effective dose: administered activity of 200 MBq
[2] = Stability of the final product in formulation; assay type: physicochemical; details: 3 h; buffered solution at pH 6.8
[3] = Biodistribution by microPET/CT imaging in C57BL6 mice; assay type: in vivo; details: 1 h post-injection, microPET
[4] = In-vitro stability in human blood plasma; assay type: in vitro ADME; details: 2 h, 37 °C
[5] = In-vitro stability in mouse blood plasma; assay type: in vitro ADME; details: 2 h, 37 °C
LNCaP cells = details: complexed to natGa; cited from earlier work
PSMA = details: read-out: Ki value towards PSMA; complexed to natGa; cell-based assay; cited from earlier work

SMILES | Mean RT (time-integrated activity coefficient) scaled to humans ([1]; Bone, Method 1) | Mean RT (time-integrated activity coefficient) scaled to humans ([1]; Bone, Method 2) | mean extrapolated effective dose per unit activity ([1]; Method 1) | effective dose ([1]; Method 1) | effective dose ([1]; Method 2) | maximum administered human activity limit ([1]; Method 2, kidneys dose-limiting, 21CFR361.1) | Mean RT (time-integrated activity coefficient) scaled to humans ([1]; Muscle, Method 2) | Mean RT (time-integrated activity coefficient) scaled to humans ([1]; Tot. Kidney, Method 1) | Mean RT (time-integrated activity coefficient) scaled to humans ([1]; Tot. Kidney, Method 2) | feasible injected activities ([1]; most stringent dosimetric calculations) | mean extrapolated effective dose per unit activity ([1]; second value, printed Method 1) | radiochemical purity in stability test [2] | tissue uptake, bladder [3] | tissue uptake, kidneys [3] | intact compound [4] | intact compound [5] | uptake in PSMA-positive LNCaP cells (LNCaP cells) | Ki (PSMA)
O=C([O-])CN(CCN(CC(=O)[O-])Cc1cc(CCC(=O)NCCCCCC(=O)NCCCC[C@H](NC(=O)N[C@@H](CCC(=O)O)C(=O)O)C(=O)O)ccc1O)Cc1cc(CCC(=O)O)ccc1O.[18F-].[Al+3] [18F-PSMA-11] | 0.045 ± 0.013 h | 0.114 ± 0.028 h | 8.59 × 10^−3 ± 7.46 × 10^−4 mSv/MBq | 1.72 mSv and 1.7 mSv | 1.25 mSv | 1,742 MBq | 0.077 ± 0.018 h | 0.141 ± 0.033 h | 0.042 ± 0.009 h | up to 0.56 GBq | 6.23 × 10^−3 ± 5.74 × 10^−4 mSv/MBq | > 97% | 77.4 ± 39.1 %ID/g | 119.3 ± 16.5 %ID/g | 94% | 91% |  | 
O=C(O)CCc1ccc(O)c(CN(CCN(CC(=O)O)Cc2cc(CCC(=O)NCCCCCC(=O)NCCCC[C@H](NC(=O)N[C@@H](CCC(=O)O)C(=O)O)C(=O)O)ccc2O)CC(=O)O)c1 [PSMA-11, Glu-urea-Lys (Ahx)-HBED-CC] |  |  |  |  |  |  |  |  |  |  |  |  |  |  |  |  | readily taken up | 12 ± 2.8 nM
